Holding throughout (experiment): Inhibition test on activity of DYRK family, mobility shift assay (MSA)
Common to all, as to assay type: biochemical

One assay deals with T1, DYRK2 (Homo sapiens, UniProt Q92630).
T1 construct: purchased Carna Biosciences, Inc. 04-132
T1 sequence (Q92630 1-601): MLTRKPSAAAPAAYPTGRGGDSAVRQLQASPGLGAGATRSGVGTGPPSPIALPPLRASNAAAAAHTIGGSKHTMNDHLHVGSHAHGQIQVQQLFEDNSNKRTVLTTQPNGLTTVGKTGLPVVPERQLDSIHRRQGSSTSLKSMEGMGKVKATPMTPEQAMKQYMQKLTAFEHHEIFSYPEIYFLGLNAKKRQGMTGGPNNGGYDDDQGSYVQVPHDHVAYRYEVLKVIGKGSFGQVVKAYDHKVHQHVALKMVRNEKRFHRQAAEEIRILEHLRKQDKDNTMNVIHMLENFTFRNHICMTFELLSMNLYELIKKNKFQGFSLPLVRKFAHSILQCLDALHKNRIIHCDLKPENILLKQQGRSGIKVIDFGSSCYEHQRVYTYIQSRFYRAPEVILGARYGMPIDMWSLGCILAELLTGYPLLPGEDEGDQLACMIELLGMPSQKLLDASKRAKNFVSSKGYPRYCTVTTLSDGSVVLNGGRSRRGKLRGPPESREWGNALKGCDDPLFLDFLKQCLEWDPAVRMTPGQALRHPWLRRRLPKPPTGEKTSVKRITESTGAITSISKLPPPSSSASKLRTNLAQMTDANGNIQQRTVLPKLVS
The settings on record: ATP 40 μM; FITC-labeled DYRKtide peptide substrate; room temperature 1 hour; read-out: Inhibitory Activity DYRK2 (IC50 class). The procedure:
(§1) The kinase activity was measured by mobility shift assay (MSA) method using QuickScout Screening Assist™ MSA (commercially available kit manufactured by Carna Biosciences, Inc.). The substrate of the kinase reaction used was an FITC-labeled DYRKtide peptide included in the kit. An assay buffer [20 mM HEPES, 0.01% Triton X-100™, 2 mM dithiothreitol, pH 7.5] was used to create a substrate mixture solution with a substrate (4 μM), MgCl2 (20 mM), and ATP (DYRK1A: 100 μM; DYRKIB: 200 μM; DYRK2:40 μM; and DYRK3:20 μM). In addition, kinases (DYRK1A: manufactured by Carna Biosciences, Inc., Cat. No. 04-130; DYRK1B: manufactured by Carna Biosciences, Inc., Cat. No. 04-131; DYRK2; manufactured by Carna Biosciences, Inc., Cat. No. 04-132; and DYRK3; manufactured by Carna Biosciences, Inc., Cat. No. 04-133) were diluted with the assay buffer to prepare enzyme solutions (DYRK1A: 0.2 ng/μL; DYRK1B: 0.08 ng/μL; DYRK2: 0.04 ng/μL; and DYRK3:0.25 ng/μL). The 10 mM solution of the test compound in DMSO was further diluted with DMSO to 10 levels of the concentration (0.00003 mM, 0.0001 mM, 0.0003 mM, 0.001 mM, 0.003 mM, 0.01 mM, 0.03 mM, 0.1 mM, 0.3 mM, and 1 mM), each of which was subjected to 25-fold dilution with the assay buffer to obtain a drug solution (4% DMSO solution). 5 μL of the drug solution or a control solution (4% DMSO-assay buffer), 5 μL of the substrate mixture solution, and 10 μL of the enzyme solution were mixed in the wells of a polypropylene 384-well plate and allowed to react at room temperature for 1 hour, and then the reaction was quenched by adding 60 μL of the termination buffer included in the kit. Subsequently, the quantities of the substrates(S) and the phosphorylated substrate (P) in the reaction solution were measured using LabChip EZ Reader II system (manufactured by Caliper Life Sciences) according to the protocol of the assay kit.
(§2) The heights of the peaks of the “substrate” and the “phosphorylated substrate” were expressed as S and P, respectively, and a blank containing the assay buffer instead of the enzyme solution was also measured.
(§3) The inhibition rate (%) of the test compound was calculated according to the following equation: […]
(§4) wherein, A, B, and C represent P/(P+S) of the blank well, P/(P+S) of the control solution well, and P/(P+S) of the compound-containing well, respectively.
(§5) The IC50 value was calculated via a regression analysis of the inhibition rate and the test compound concentration (logarithmic value).

For the next assay, the target named is T2, DYRK1A (Homo sapiens, UniProt Q13627).
T2 construct: purchased Carna Biosciences, Inc. 04-130
The settings on record: ATP 100 μM; FITC-labeled DYRKtide peptide substrate; room temperature 1 hour; read-out: Inhibitory Activity DYRK1A (IC50 class). The protocol: as §1, §2, §3, §4, §5

The target in a further assay is T3, DYRK3 (Homo sapiens, UniProt O43781).
T3 construct: purchased Carna Biosciences, Inc. 04-133
T3 sequence (O43781 1-588): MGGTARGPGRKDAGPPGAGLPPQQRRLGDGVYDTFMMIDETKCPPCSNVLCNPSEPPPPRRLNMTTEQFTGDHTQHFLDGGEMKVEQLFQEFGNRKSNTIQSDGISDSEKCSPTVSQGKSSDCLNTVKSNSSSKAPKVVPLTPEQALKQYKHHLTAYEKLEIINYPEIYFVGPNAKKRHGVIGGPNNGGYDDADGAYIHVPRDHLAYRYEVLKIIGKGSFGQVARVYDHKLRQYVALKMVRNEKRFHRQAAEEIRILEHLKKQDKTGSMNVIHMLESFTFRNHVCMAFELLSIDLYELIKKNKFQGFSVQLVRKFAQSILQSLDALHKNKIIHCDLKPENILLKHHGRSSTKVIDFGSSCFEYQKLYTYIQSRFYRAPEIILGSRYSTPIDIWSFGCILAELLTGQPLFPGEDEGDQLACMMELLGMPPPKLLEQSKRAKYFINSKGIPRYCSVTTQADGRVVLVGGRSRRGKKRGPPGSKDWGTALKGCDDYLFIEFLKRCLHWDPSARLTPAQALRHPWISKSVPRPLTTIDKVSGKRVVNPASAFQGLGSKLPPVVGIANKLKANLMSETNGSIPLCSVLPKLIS
The settings on record: ATP 20 μM; FITC-labeled DYRKtide peptide substrate; room temperature 1 hour; read-out: Inhibitory Activity DYRK3 (IC50 class). The procedure: as §1, §2, §3, §4, §5

pIC50: −log10 of the molar value.

As a reminder, the pIC50 is the negative decadic logarithm of the IC50, by convention in mol/L.

With `CC#CC1N(c2nc3c4c(ccc3s2)OCC4)C(=O)NC12CCC2` (single isomer, unassigned) [Example 21, 7-(7,8-dihydrobenzofuro[4,5-d]thiazol-2-yl)-8-(prop-1-yn-1-yl)-5,7-diazaspiro[3.4]octan-6-one], the figures for the pIC50 on DYRK2, at DYRK1A and at DYRK3 were below 6.00, 6.00 to 7.00 and below 6.00, respectively.
With `CC#CC1N(c2nc3c4c(ccc3s2)OCC4)C(=O)NC12CC2` (racemic) [Example 2, (RS)-6-(7,8-dihydrobenzofuro[4,5-d]thiazol-2-yl)-7-(prop-1-yn-1-yl)-4,6-diazaspiro[2.4]heptan-5-one], the pIC50 is 6.00 to 7.00 on DYRK2, above 8.00 at DYRK1A and 6.00 to 7.00 on DYRK3.
Take `CC#CC1CCNC(=O)N1c1nc2c3c(ccc2s1)OCCO3` (racemic) [Example 1, (RS)-1-(7,8-dihydro-[1,4]dioxino[2′,3′:5,6]benzo[1,2-d]thiazol-2-yl)-6-(prop-1-yn-1-yl)tetrahydropyrimidin-2(1H)-one]: the pIC50 on DYRK2 was below 6.00; at DYRK1A, above 8.00; on DYRK3 it was below 6.00.
Turning to `CC#CC1N(c2nc3c4c(ccc3s2)OCC4)C(=O)NC12CC2` (single isomer, unassigned) [Example 19, 6-(7,8-dihydrobenzofuro[4,5-d]thiazol-2-yl)-7-(prop-1-yn-1-yl)-4,6-diazaspiro[2.4]heptan-5-one], the pIC50 at DYRK2, at DYRK1A and on DYRK3 was below 6.00 each time.
With `CC#C[C@@H]1[C@H](C)CNC(=O)N1c1nc2c3c(ccc2s1)OCC3` (stereo in doubt) [Example 10, (5R*,6S*)-1-(7,8-dihydrobenzofuro[4,5-d]thiazol-2-yl)-5-methyl-6-(prop-1-yn-1-yl)tetrahydropyrimidin-2(1H)-one], the pIC50 at DYRK2 and on DYRK3 was below 6.00 each time.
On to `CC#CC1N(c2nc3c4c(ccc3s2)OCC4)C(=O)NC12CCCC2` (single isomer, unassigned) [Example 22, 3-(7,8-dihydrobenzofuro[4,5-d]thiazol-2-yl)-4-(prop-1-yn-1-yl)-1,3-diazaspiro[4.4]nonan-2-one], for which the figures for the negative-log IC50 (pIC50) on DYRK2 and on DYRK3 were below 6.00 and 6.00 to 7.00, respectively.
For the molecule `CC#C[C@@H]1[C@@H](C)CNC(=O)N1c1nc2c3c(ccc2s1)OCC3` (stereo in doubt) [Example 11, (5S*, 6S*)-1-(7,8-dihydrobenzofuro[4,5-d]thiazol-2-yl)-5-methyl-6-(prop-1-yn-1-yl)tetrahydropyrimidin-2(1H)-one], the pIC50 at DYRK2 and at DYRK3 was below 6.00 in each case.
In the case of `CC#CC1CCNC(=O)N1c1nc2c3c(ccc2s1)OCCO3` (single isomer, unassigned) [Example 6, 1-(7,8-dihydro-[1,4]dioxyno[2′,3′:5,6]benzo[1,2-d]thiazol-2-yl)-6-(prop-1-yn-1-yl)tetrahydropyrimidin-2(1H)-one], the figures for the pIC50 on DYRK2, at DYRK1A and on DYRK3 were below 6.00, 6.00 to 7.00 and below 6.00, respectively.
Regarding `CC#CC1N(c2nc3c4c(ccc3s2)OCC4)C(=O)NC12CCC2` (single isomer, unassigned) [Example 20, 7-(7,8-dihydrobenzofuro[4,5-d]thiazol-2-yl)-8-(prop-1-yn-1-yl)-5,7-diazaspiro[3.4]octan-6-one], the pIC50 is below 6.00 on DYRK2, above 8.00 at DYRK1A and 6.00 to 7.00 on DYRK3.
For the molecule `CC#CC1N(c2nc3c4c(ccc3s2)OCC4)C(=O)NC12COC2` (racemic) [Example 9, (RS)-7-(7,8-dihydro-benzofuro[4,5-d]thiazol-2-yl)-8-(prop-1-yn-1-yl)-2-oxa-5,7-diazaspiro[3.4]octan-6-one], the pIC50 is below 6.00 at DYRK2, 7.00 to 8.00 at DYRK1A and 6.00 to 7.00 at DYRK3.
`CC#CC1N(c2nc3c4c(ccc3s2)OCCO4)C(=O)NC12CC2` (racemic) [Example 4, (RS)-6-(7,8-dihydro-[1,4]dioxyno[2′,3′:5,6]benzo[1,2-d]thiazol-2-yl)-7-(prop-1-yn-1-yl)-4,6-diazaspiro[2.4]heptan-5-one]: the pIC50 on DYRK2 and on DYRK3 was 6.00 to 7.00 throughout.
`CC#CC1CCNC(=O)N1c1nc2c3c(ccc2s1)OCC3` (racemic) [Example 3, (RS)-3-(7,8-dihydrobenzofuro[4,5-d]thiazol-2-yl)-4-(prop-1-yn-1-yl)-tetrahydropyrimidin-2(1H)-one]: the pIC50 was 6.00 to 7.00 at DYRK2, above 8.00 on DYRK1A and 6.00 to 7.00 on DYRK3.
Take `CC#CC1N(c2nc3c4c(ccc3s2)OCC4)C(=O)NC12CCCC2` (single isomer, unassigned) [Example 23, 3-(7,8-dihydrobenzofuro[4,5-d]thiazol-2-yl)-4-(prop-1-yn-1-yl)-1,3-diazaspiro[4.4]nonan-2-one]: the negative logarithm of the IC50 (pIC50) on DYRK2 and at DYRK3 was below 6.00 in each case.
With `CC#CC1N(c2nc3c4c(ccc3s2)OCCO4)C(=O)NC12CC2` (single isomer, unassigned) [Example 8, 6-(7,8-dihydro-[1,4]dioxyno[2′,3′:5,6]benzo[1,2-d]thiazol-2-yl)-7-(prop-1-yn-1-yl)-4,6-diazaspiro[2.4]heptan-5-one], the pIC50 on DYRK2 and on DYRK3 was below 6.00 each time.
Consider `CC#CC1N(c2nc3c4c(ccc3s2)OCC4)C(=O)NC12CC2` (single isomer, unassigned) [Example 18, 6-(7,8-dihydrobenzofuro[4,5-d]thiazol-2-yl)-7-(prop-1-yn-1-yl)-4,6-diazaspiro[2.4]heptan-5-one], for which the pIC50 on DYRK2 was 6.00 to 7.00; on DYRK1A it was above 8.00; at DYRK3, 7.00 to 8.00.

Source of the values: US20250326767A1, “NOVEL BENZOTHIAZOLE DERIVATIVES” (CARNA BIOSCIENCES, INC., priority 2021, published 2025).
